Laboratory results taken from patent US8796259B2, “N3-heteroaryl substituted triazoles and N5-heteroaryl substituted triazoles useful as axl inhibitors” (Rigel Pharmaceuticals, Inc., priority 2006, dated 2014).

Target: T1, Axl (Homo sapiens, UniProt P30530)
T1 construct: endogenous in cells; host or cells: HeLa cells
T1 sequence (P30530 26-894): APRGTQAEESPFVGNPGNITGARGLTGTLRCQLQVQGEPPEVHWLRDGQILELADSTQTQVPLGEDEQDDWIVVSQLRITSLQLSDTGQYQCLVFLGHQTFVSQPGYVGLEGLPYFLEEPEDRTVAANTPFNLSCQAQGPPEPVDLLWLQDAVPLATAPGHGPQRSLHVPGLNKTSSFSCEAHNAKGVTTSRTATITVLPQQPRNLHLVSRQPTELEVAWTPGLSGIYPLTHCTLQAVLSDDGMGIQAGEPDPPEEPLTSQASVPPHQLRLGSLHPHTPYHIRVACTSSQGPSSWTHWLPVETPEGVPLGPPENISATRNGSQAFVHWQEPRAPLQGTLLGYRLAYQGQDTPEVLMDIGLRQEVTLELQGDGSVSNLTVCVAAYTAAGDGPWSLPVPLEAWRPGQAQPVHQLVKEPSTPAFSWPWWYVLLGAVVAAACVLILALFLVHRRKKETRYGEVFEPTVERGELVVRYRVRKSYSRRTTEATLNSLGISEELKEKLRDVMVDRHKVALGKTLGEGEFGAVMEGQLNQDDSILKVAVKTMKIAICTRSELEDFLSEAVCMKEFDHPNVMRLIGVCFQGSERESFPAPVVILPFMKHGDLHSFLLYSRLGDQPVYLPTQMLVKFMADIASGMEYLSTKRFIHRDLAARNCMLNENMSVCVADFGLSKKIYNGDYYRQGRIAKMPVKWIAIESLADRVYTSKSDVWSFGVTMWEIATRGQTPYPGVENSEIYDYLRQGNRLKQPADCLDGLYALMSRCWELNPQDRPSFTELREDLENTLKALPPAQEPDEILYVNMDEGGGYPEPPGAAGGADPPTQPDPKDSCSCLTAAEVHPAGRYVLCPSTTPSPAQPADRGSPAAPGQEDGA
Experiment: Phospho-Akt in-cell Western assay (inhibition of Axl activity, Axl-antibody cross-linking stimulation)
Assay type: cell-based
Conditions: Hela cells, phospho-Akt readout; compounds of formula (Ia), Table 1
Protocol: The compounds of the invention were tested in the following assay for their ability to inhibit Axl activity.
Phospho-Akt in-Cell Western Assay
• Cell culture plate: 96 well assay plate (Corning 3610), white, clear bottom, tissue-culture treated. • Cells: Hela cells. • Starvation medium: For Axl stimulation: 0.5% FCS (fetal calf serum) in DMEM, plus Axl/Fc (extracellular domain of AXL fused to immunoglobulin Fc region) (R&D, 154-AL) 500 ng/mL. • For EGF (epidermal growth factor) stimulation: 0.5% FCS in DMEM (Dulbecco's modified Eagles medium). • Poly-L-Lysine 0.01% solution (the working solution): 10 μg/ml, dilute In PBS (phosphate buffered saline). • Axl antibody cross-linking: • 1st: Mouse anti-Axl (R&D, MAB154). • 2nd: Biotin-SP-conjugated AffiniPure goat anti-mouse IgG (H+L) (Jackson ImmunoResearch #115-065-003). • Fixing buffer: 4% formaldehyde in PBS. • Wash buffer: 0.1% TritonX-100 in PBS. • Quenching buffer: 3% H2O2, 0.1% Azide in wash buffer, Azide and hydrogen peroxide (H2O2) are added fresh. • Blocking buffer: 5% BSA in TBST (tris buffered saline plus 0.1% Tween 20). • Primary antibody: Rabbit anti-human Phospho-Akt antibody (Cell Signaling 9271): 1×250 diluted in blocking buffer. • Secondary antibody: HRP (horse radish peroxidase)-conjugated Goat anti-Rabbit secondary, stock solution: Jackson ImmunoResearch (Goat anti-Rabbit HRP, #111-035-144) 1:1 diluted in glycerol, store at −20° C. The working solution: 1×2000 dilution of stock in blocking buffer. • Chemiluminescent working solution (Pierce, 37030): SuperSignal ELISA (enzyme linked immunosorbant assay) Pico Chemiluminescent substrate. • Crystal Violet solution: Stock: 2.5% Crystal violet in methanol, filtered and kept at ambient temperature. The working solution: dilute the stock 1:20 with PBS immediately before use.
10% SDS: working solution: 5% SDS (sodium dodecylsulfate), diluted in PBS
A 96 well TC (tissue culture treated) plate was coated with 10 μg/mL poly-L-Lysine at 37° C. for 30 min, washed twice with PBS, and air-dried for 5 minutes before cells were added. Hela cells were seeded at 10,000 cells/well and the cells were starved in 100 μL starvation medium containing Axl/Fc for 24 hrs.
The cells were pre-treated with test compounds by adding 100 μL of 2× test compound to the starvation medium on the cells. The cells were incubated at 37° C. for 1 hr before stimulation.
The cells were stimulated by Axl-antibody cross-linking as follows: A 5×1st/2nd Axl antibody mixture was made (37.5 μg/mL 1st/100 μg/mL 2 nd) in starvation medium and nutated at 4° C. with thorough mixing for 1-2 hours for clustering. The resulting mix was warmed to 37° C. 50 μL of 5×Axl 1st/2nd of antibody cluster was added to the cells and the cells were incubated at 37° C. for 5 min.
After 5 minutes stimulation, the plate was flicked to remove medium and the plate was tapped onto paper towels. Formaldehyde (4.0% in PBS, 100 μL) was added to fix the cells and the cells were incubated at ambient temperature for 20 min without shaking.
The cells were washed with a plate washer buffer to remove the formaldehyde solution. The plate was flicked to removed excess wash buffer and tapped onto paper towels. Quenching buffer (100 μL) was added to each well and the cells were incubated at ambient temperature for 20 minutes without shaking.
The cells were washed with a plate washer buffer to remove the quenching buffer. Blocking buffer (100 μL) was added and the cells were incubated at ambient temperature for at least an hour with gentle shaking.
The cells were washed with a plate washer buffer and diluted primary antibody (50 μL) was added to each well (blocking buffer was added to the negative control wells instead). The plates were incubated overnight at 4° C. with gentle shaking.
The wash buffer was removed, diluted secondary antibody (100 μL) was added, and the cells were incubated at ambient temperature for 1 hour with gentle shaking. […]

Structure (SMILES) | IC50 [nM]
CCN(CC)C1CCN(c2ccc(Nc3nc(N)n(-c4ncnc5cc(OC)c(OC)cc45)n3)cn2)C1 (stereo not drawn) [compound 45, 1-(6,7-dimethoxy-quinazoline-4-yl)-N^3-(6-(3-diethyl-amino-pyrrolidin-1-yl)pyridin-3-yl)-1H-1,2,4-triazole-3,5-diamine] | < 1000
Cc1csc2c(-n3nc(Nc4ccc(N5CCCN(C6CC7CCC6C7)CC5)nc4)nc3N)nc(Cl)nc12 (stereo not drawn) [compound 46, 1-(2-chloro-7-methylthieno [3,2-d]pyrimidin-4-yl)-N^3-(6-(4-(bicyclo[2.2.1]heptan-2-yl)-1,4-diazepan-1-yl)pyridin-3-yl)-1H-1,2,4-triazole-3,5-diamine] | < 1000
COc1cc2ncnc(-n3nc(Nc4ccc(N5CCCN(C6CC7CCC6C7)CC5)nc4)nc3N)c2cc1OC (stereo not drawn) [compound 47, 1-(6,7-dimethoxy-quinazoline-4-yl)-N^3-(6-(4-(bicyclo [2.2.1]heptan-2-yl)-1,4-diazepan-1-yl)pyridin-3-yl)-1H-1,2,4-triazole-3,5-diamine] | < 1000
Cc1csc2c(-n3nc(Nc4ccc(N5CCN(CC6CC6)CC5)nc4)nc3N)nc(Cl)nc12 [compound 48, 1-(2-chloro-7-methylthieno [3,2-d]pyrimidin-4-yl)-N^3-(6-(4-cyclopropyl-methyl-piperazin-1-yl)pyridin-3-yl)-1H-1,2,4-triazole-3,5-diamine] | < 1000
Nc1nc(Nc2ccc(N3CCN(CC4CC4)CC3)nc2)nn1-c1ccc(C(F)(F)F)cn1 [compound 49, 1-(5-trifluoro-methylpyridin-2-yl)-N^3-(6-(4-cyclopropyl-methyl-piperazin-1-yl)pyridin-3-yl)-1H-1,2,4-triazole-3,5-diamine] | < 1000
Cc1csc2c(-n3nc(Nc4cnc5c(c4)CN(CCN(C)C)CC5)nc3N)nc(Cl)nc12 [compound 50, 1-(2-chloro-7-methylthieno [3,2-d]pyrimidine-4-yl)-N^3-(6-(2-dimethyl-aminoethyl)-5,6,7,8-tetrahydro-1,6-naphthyridin-3-yl)-1H-1,2,4-triazole-3,5-diamine] | < 1000
Cc1csc2c(-n3nc(Nc4cnc5c(c4)CC(NC4CCN(C)CC4)CC5)nc3N)nc(Cl)nc12 (stereo not drawn) [compound 51, 1-(2-chloro-7-methylthieno [3,2-d]pyrimidine-4-yl)-N^3-(6-(1-methyl-piperidin-4-ylamino)-5,6,7,8-tetrahydro-quinolin-3-yl)-1H-1,2,4-triazole-3,5-diamine] | < 1000
Cc1csc2c(-n3nc(Nc4cnc5c(c4)CN(C4CCCC4)CC5)nc3N)nc(Cl)nc12 [compound 52, 1-(2-chloro-7-methylthieno [3,2-d]pyrimidine-4-yl)-N^3-(6-cyclopentyl-5,6,7,8-tetrahydro-1,6-naphthyridin-3-yl)-1H-1,2,4-triazole-3,5-diamine] | < 1000
Cc1cc(Nc2nc(N)n(-c3nccc4occc34)n2)cnc1N1CCC(N2CCCC2)CC1 [compound 53, 1-(furo[3,2-c]pyridine-4-yl)-N^3-(6-(4-(pyrrolidin-1-yl)piperidin-1-yl)-5-methylpyridin-3-yl)-1H-1,2,4-triazole-3,5-diamine] | < 1000
Cc1cc(Nc2nc(N)n(-c3ncnc4sc5c(c34)CCC5)n2)cnc1N1CCC(N2CCCC2)CC1 [compound 54, 1-(6,7-dihydro-5H-cyclopenta [4,5]thieno[2,3-d]pyrimidin-4-yl)-N^3-(6-(4-(pyrrolidin-1-yl)piperidin-1-yl)-5-methyl-pyridin-3-yl)-1H-1,2,4-triazole-3,5-diamine] | < 1000
Cc1nc(-n2nc(Nc3cnc(N4CCC(N5CCCC5)CC4)c(C)c3)nc2N)c2ccccc2n1 [compound 55, 1-(2-methyl-quinazolin-4-yl)-N^3-(6-(4-(pyrrolidin-1-yl)piperidin-1-yl)-5-methylpyridin-3-yl)-1H-1,2,4-triazole-3,5-diamine] | < 1000
Cc1cc(Nc2nc(N)n(-c3ncnc4ccc(F)cc34)n2)cnc1N1CCC(N2CCCC2)CC1 [compound 56, 1-(6-fluoro-quinazolin-4-yl)-N^3-(6-(4-(pyrrolidin-1-yl)piperidin-1-yl)-5-methylpyridin-3-yl)-1H-1,2,4-triazole-3,5-diamine] | < 1000
Cc1csc2c(-n3nc(Nc4ccc(N5CC6CN(C7CC8CCC7C8)CC6C5)nc4)nc3N)nc(Cl)nc12 (stereo not drawn) [compound 57, 1-(2-chloro-7-methylthieno [3,2-d]pyrimidine-4-yl)-N^3-(6-(5-bicyclo[2.2.1]heptan-2-yl-octahydropyrrol [3,4-c]pyrrolyl)pyridine-3-yl)-1H-1,2,4-triazole-3,5-diamine] | < 1000
COc1cc2ncnc(-n3nc(Nc4ccc(Br)nc4)nc3NC(=NC#N)Nc3ccc(Br)nc3)c2cc1OC [compound 58, 1-(6,7-dimethoxy-quinazoline-4-yl)-N^3-(6-bromopyridin-3-yl)-5-(3-(6-bromopyridin-3-yl)-2-cyano-guanadino)-1H-1,2,4-triazole-3-amine] | 1000 to 10000
COc1cc2ncnc(-n3nc(Nc4ccc(Br)nc4)nc3N)c2cc1OC [compound 59, 1-(6,7-dimethoxy-quinazoline-4-yl)-N^3-(6-bromopyridin-3-yl)-1H-1,2,4-triazole-3,5-diamine] | > 20000
Cc1csc2c(-n3nc(Nc4cnc5c(c4)CC4(CC5)OCCO4)nc3N)nc(Cl)nc12 [compound 60, 1-(2-chloro-7-methylthieno [3,2-d]pyrimidin-4-yl)-N^3-(7′,8′-dihydro-5′H-spiro[[1,3]dioxolane-2,6′-quinoline]-3′-yl)-1H-1,2,4-triazole-3,5-diamine] | < 1000
Cc1csc2c(-n3nc(Nc4cnc5c(c4)CN(C(=O)C4CCN(C)CC4)CC5)nc3N)nc(Cl)nc12 [compound 61, 1-(2-chloro-7-methylthieno [3,2-d]pyrimidin-4-yl)-N^3-(6-(1-methyl-piperidin-4-ylcarbonyl)-5,6,7,8-tetrahydro-1,6-naphthyridin-3-yl)-1H-1,2,4-triazole-3,5-diamine] | < 1000
COc1cc2ncnc(-n3nc(Nc4cnc(N5CCC(N6CCCC6)CC5)nc4)nc3N)c2cc1OC [compound 62, 1-(6,7-dimethoxy-quinazoline-4-yl)-N^3-(2-(4-pyrrolidin-1-ylpiperidin-1-yl)pyrimidin-5-yl)-1H-1,2,4-triazole-3,5-diamine] | > 20000
